# Experimental data reported in ChEMBL document CHEMBL5653631, “A Potent and Selective ULK1 Inhibitor Suppresses Autophagy and Sensitizes Cancer Cells to Nutrient Stress” (iScience, 2018).
# Key:
# [1] = molecular target: Fibroblast growth factor receptor 4 (Homo sapiens) (UniProt P22455); test: Inhibition of human recombinant FGFR4 at 500 nM related to control ULK1
# [2] = molecular target: T1, MAP kinase-activated protein kinase 5 (Homo sapiens) (UniProt Q8IW41); test: Inhibition of human recombinant MAPKAPK5 at 500 nM related to control ULK1
# T1 sequence (whole entry): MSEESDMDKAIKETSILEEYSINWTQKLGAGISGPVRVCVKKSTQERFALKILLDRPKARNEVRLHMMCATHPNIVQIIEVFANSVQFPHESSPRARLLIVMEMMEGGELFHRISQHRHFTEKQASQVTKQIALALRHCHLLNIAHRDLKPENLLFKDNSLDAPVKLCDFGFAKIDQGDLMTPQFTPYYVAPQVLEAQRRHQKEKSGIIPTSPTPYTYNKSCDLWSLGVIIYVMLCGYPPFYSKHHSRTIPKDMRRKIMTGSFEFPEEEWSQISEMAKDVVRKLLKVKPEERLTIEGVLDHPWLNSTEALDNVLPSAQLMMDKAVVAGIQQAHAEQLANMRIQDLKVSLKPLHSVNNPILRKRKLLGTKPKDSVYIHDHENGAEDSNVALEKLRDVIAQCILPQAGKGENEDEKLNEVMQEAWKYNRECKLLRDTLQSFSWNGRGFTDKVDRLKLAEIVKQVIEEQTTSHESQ
# [3] = molecular target: TGF-beta receptor type-2 (Homo sapiens) (UniProt P37173); test: Inhibition of human recombinant TGFbR2 at 500 nM related to control ULK1
# TGF-beta receptor type-2 (Homo sapiens), sequence (P37173 whole entry): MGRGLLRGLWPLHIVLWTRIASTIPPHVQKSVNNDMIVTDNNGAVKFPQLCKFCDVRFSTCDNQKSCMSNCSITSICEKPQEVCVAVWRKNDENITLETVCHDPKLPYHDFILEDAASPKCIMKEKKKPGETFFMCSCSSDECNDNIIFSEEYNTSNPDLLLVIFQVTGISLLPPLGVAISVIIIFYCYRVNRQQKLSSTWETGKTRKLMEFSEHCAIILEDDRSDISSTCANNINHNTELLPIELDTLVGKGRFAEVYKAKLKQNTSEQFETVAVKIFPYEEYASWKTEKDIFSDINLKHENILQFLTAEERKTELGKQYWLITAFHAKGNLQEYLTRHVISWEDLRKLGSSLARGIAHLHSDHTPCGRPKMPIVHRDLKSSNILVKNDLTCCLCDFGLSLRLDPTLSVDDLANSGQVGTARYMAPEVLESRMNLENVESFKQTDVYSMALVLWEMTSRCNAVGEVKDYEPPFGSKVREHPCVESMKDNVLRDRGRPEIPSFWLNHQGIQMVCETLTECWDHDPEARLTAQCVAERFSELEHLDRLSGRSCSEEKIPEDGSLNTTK
# [4] = molecular target: T2, Serine/threonine-protein kinase 17A (Homo sapiens) (UniProt Q9UEE5); test: Inhibition of human recombinant DRAK1 at 15 nM in presence of ATP by radiometric assay relative to control
# T2 sequence (whole entry): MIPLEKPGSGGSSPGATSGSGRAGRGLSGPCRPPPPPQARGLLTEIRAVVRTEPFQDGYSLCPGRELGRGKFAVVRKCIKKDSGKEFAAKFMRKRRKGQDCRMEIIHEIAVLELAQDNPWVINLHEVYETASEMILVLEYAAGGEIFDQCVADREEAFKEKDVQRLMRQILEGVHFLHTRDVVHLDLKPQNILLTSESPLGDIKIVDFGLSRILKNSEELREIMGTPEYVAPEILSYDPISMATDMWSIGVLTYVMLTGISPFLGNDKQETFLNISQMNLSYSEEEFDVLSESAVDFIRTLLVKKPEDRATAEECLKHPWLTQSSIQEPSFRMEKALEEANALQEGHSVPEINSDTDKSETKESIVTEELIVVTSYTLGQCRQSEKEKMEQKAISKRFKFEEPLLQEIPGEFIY
# [5] = molecular target: T3, Serine/threonine-protein kinase Sgk1 (Homo sapiens) (UniProt O00141); test: Inhibition of human recombinant SGK1 at 15 nM in presence of ATP by radiometric assay relative to control
# T3 sequence (whole entry): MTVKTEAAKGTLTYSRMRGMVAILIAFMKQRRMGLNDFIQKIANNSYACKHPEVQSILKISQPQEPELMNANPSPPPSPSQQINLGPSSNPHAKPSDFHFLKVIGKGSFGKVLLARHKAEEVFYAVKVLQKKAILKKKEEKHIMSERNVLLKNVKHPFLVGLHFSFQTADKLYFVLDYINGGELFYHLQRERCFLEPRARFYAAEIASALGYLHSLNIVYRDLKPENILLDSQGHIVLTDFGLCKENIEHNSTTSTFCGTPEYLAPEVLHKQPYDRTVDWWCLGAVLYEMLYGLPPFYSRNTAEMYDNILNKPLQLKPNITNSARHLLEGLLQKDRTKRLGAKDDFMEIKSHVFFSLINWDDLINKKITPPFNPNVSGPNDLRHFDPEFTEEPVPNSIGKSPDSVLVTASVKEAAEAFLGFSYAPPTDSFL
# [6] = molecular target: Mitogen-activated protein kinase 8 (Homo sapiens) (UniProt P45983); test: Inhibition of human recombinant JNK1 at 40 nM in presence of ATP by radiometric assay relative to control
# Mitogen-activated protein kinase 8 (Homo sapiens), sequence (P45983 whole entry): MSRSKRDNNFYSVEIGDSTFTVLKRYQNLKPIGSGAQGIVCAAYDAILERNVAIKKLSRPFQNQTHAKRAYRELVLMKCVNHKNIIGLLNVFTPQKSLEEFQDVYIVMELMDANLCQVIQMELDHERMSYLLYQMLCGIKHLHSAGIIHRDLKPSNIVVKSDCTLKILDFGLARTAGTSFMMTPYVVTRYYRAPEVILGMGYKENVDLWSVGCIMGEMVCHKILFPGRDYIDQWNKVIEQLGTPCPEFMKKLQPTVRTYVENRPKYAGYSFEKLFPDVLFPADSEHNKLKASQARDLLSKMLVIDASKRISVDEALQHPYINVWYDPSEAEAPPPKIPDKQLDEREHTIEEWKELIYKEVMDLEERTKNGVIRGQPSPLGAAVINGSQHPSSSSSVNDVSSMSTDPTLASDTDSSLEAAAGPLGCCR
# [7] = molecular target: T4, Serine/threonine-protein kinase ULK2 (Homo sapiens) (UniProt Q8IYT8); test: Inhibition of human recombinant ULK2 at 40 nM in presence of ATP by radiometric assay relative to control
# T4 sequence (whole entry): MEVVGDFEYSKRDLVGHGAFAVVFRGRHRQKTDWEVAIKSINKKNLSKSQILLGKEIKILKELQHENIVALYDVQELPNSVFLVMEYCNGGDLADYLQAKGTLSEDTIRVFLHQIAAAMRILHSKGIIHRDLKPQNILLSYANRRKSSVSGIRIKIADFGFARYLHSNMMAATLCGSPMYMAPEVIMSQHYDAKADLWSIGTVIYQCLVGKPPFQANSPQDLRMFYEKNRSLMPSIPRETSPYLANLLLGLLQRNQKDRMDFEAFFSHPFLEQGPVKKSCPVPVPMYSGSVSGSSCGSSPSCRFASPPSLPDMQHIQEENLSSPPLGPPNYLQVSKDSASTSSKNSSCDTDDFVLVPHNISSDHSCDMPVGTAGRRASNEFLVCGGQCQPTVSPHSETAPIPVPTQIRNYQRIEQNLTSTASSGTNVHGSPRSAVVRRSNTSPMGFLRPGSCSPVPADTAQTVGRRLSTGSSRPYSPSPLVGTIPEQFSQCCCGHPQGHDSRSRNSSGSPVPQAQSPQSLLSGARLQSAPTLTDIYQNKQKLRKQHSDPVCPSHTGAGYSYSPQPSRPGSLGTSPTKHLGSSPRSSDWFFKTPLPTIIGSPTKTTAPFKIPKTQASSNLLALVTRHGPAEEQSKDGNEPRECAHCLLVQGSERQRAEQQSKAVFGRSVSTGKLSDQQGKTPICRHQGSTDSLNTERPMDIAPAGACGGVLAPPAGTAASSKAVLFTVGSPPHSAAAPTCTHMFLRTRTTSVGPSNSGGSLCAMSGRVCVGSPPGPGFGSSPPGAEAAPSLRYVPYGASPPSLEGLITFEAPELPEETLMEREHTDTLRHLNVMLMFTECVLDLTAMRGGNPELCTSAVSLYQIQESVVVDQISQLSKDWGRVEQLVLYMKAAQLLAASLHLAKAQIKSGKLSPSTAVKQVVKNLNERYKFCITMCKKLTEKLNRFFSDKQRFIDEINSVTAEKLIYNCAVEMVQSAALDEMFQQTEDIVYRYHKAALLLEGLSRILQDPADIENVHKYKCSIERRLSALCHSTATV
# [8] = molecular target: Proto-oncogene tyrosine-protein kinase ROS (Homo sapiens) (UniProt P08922); test: Inhibition of human recombinant ROS at 40 nM related to control ULK1
# Proto-oncogene tyrosine-protein kinase ROS (Homo sapiens), sequence (P08922 whole entry): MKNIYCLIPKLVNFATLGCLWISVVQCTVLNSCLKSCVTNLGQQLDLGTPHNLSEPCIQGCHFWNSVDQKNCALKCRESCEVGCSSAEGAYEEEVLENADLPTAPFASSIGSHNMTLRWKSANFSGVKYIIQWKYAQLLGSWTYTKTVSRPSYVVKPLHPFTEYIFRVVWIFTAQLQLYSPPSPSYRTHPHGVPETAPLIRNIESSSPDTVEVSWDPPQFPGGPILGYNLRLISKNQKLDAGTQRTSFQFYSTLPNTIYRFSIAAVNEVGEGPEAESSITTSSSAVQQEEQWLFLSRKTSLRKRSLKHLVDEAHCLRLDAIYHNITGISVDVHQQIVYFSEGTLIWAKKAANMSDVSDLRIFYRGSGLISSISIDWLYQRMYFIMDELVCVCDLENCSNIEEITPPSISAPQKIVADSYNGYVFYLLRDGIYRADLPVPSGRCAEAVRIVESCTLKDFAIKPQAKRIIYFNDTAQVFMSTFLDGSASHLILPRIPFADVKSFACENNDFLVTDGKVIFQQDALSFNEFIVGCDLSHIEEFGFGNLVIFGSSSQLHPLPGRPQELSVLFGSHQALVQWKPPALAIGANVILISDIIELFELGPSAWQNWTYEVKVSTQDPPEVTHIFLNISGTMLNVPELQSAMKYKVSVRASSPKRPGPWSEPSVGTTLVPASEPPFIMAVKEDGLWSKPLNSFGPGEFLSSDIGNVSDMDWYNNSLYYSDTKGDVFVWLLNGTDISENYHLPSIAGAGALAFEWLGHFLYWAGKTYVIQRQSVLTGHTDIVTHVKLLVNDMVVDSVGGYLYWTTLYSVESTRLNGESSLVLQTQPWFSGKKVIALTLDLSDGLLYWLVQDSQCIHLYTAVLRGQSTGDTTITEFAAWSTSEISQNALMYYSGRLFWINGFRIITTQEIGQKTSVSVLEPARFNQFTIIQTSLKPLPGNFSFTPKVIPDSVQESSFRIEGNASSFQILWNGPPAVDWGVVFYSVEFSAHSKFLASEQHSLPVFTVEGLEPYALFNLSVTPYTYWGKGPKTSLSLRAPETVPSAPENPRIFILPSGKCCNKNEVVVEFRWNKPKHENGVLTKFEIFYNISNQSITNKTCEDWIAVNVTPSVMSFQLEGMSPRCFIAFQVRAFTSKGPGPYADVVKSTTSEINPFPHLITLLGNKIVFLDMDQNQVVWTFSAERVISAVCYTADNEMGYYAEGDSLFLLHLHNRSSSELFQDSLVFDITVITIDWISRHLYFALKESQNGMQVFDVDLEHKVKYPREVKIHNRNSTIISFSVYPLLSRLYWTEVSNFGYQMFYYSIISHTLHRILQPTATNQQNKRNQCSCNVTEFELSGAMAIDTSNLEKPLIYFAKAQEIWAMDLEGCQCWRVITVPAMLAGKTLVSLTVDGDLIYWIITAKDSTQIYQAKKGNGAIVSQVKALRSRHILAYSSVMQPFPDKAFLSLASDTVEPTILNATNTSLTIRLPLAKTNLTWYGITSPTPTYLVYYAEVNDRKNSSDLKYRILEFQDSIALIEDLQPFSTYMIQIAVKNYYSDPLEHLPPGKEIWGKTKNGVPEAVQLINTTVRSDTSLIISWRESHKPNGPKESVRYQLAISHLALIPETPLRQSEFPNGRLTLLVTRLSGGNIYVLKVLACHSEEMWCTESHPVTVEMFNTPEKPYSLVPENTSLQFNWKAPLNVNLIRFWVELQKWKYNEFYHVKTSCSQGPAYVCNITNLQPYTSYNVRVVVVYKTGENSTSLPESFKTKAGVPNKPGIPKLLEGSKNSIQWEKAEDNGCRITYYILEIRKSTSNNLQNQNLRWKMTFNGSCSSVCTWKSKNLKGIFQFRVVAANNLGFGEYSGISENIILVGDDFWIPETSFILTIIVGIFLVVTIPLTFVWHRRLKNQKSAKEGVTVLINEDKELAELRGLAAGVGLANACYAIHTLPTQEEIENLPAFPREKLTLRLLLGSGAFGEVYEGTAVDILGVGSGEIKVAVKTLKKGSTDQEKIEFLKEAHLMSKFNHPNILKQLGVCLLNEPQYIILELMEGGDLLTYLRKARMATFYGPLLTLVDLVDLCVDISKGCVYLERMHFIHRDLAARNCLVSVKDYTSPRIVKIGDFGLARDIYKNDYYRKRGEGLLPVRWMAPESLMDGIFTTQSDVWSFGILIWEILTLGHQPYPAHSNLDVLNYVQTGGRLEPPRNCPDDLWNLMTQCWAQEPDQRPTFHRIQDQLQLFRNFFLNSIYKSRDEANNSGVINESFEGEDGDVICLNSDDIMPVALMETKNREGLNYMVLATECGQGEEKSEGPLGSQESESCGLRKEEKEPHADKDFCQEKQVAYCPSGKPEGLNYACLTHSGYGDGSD
# Fibroblast growth factor receptor 4 (Homo sapiens), sequence (P22455 22-802 limits assumed): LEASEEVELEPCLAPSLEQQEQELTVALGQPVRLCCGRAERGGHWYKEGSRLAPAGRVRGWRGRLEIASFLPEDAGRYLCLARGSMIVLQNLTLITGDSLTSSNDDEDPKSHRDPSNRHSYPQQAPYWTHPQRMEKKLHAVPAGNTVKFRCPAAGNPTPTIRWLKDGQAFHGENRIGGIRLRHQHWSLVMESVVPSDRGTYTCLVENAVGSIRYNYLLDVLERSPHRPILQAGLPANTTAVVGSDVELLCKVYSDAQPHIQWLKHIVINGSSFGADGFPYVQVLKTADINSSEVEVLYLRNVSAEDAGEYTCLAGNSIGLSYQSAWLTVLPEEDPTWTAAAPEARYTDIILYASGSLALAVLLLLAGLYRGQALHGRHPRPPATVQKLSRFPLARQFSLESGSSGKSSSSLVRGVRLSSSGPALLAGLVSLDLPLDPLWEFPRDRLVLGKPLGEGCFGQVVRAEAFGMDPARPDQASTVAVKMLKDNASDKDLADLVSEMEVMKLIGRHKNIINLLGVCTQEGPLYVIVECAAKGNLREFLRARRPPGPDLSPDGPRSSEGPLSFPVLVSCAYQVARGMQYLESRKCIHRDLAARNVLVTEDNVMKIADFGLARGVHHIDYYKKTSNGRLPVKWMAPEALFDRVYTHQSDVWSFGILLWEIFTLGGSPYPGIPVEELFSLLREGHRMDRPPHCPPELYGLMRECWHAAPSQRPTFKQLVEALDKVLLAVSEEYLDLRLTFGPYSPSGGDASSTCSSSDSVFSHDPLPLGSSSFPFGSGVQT
compound,measurement,setting,value
CNC(=O)c1ccccc1Oc1nc(Nc2cc(OC)c(OC)c(OC)c2)ncc1Br,fold change (FC),[1],0.14
same,fold change (FC),[2],0
same,fold change (FC),[3],0.03
CC(C)[C@H](NC(=O)c1cc(-c2cnn3cc(-c4ccc(OCCN5CCCCC5)cc4)cnc23)cs1)C(F)(F)F,inhibition,[4],71%
same,inhibition,[5],4%
O=C(N[C@@H](C1CC1)C(F)(F)F)c1cc(-c2cnn3cc(-c4ccc(F)cc4)cnc23)cs1,inhibition,[6],0%
same,inhibition,[7],46%
same,fold change (FC),[8],0
